Key:
CDK19 = target: T1, CDK19 (Homo sapiens, UniProt Q9BWU1); experiment: Kinase competition binding assay (Kd, qPCR readout), CDK19; settings: in vitro binding; 11-point 3-fold dilution series; read-out: pKd (CDK19) (converted)
T1 construct: made in house; host or cells: E. coli BL21-derived host (T7 phage display) or HEK-293 cells
Protocol: (§1) Compounds 1 to 11 were tested for their in vitro binding activity against CDK8 and CDK19.
(§2) Kinase assays: Kinase-tagged T7 phage strains were prepared in an E. coli host derived from the BL21 strain. E. coli were grown to log-phase and infected with T7 phage and incubated with shaking at 32° C. until lysis. The lysates were centrifuged and filtered to remove cell debris. The remaining kinases were produced in HEK-293 cells and subsequently tagged with DNA for qPCR detection. Streptavidin-coated magnetic beads were treated with biotinylated small molecule ligands for 30 minutes at room temperature to generate affinity resins for kinase assays. The liganded beads were blocked with excess biotin and washed with blocking buffer (SeaBlock (Pierce), 1% BSA, 0.05% Tween 20, 1 mM DTT) to remove unbound ligand and to reduce non-specific binding. Binding reactions were assembled by combining kinases, liganded affinity beads, and test compounds in 1× binding buffer (20% SeaBlock, 0.17×PBS, 0.05% Tween 20, 6 mM DTT). Test compounds were prepared as 111× stocks in 100% DMSO. Kds were determined using an 11-point 3-fold compound dilution series with three DMSO control points. All compounds for Kd measurements are distributed by acoustic transfer (non-contact dispensing) in 100% DMSO. The compounds were then diluted directly into the assays such that the final concentration of DMSO was 0.9%. All reactions performed in polypropylene 384-well plate. Each was a final volume of 0.02 ml. The assay plates were incubated at room temperature with shaking for 1 hour and the affinity beads were washed with wash buffer (1×PBS, 0.05% Tween 20). The beads were then re-suspended in elution buffer (1×PBS, 0.05% Tween 20, 0.5 μM nonbiotinylated affinity ligand) and incubated at room temperature with shaking for 30 minutes. The kinase concentration in the eluates was measured by qPCR.
(§3) Compound handling: An 11-point 3-fold serial dilution of each test compound was prepared in 100% DMSO at 100× final test concentration and subsequently diluted to 1× in the assay (final DMSO concentration=1%). Most Kds were determined using a compound top concentration=30,000 nM. If the initial Kd determined was <0.5 nM (the lowest concentration tested), the measurement was repeated with a serial dilution starting at a lower top concentration.
(§4) Binding constants: Binding constants (Kds) were calculated with a standard dose-response curve using the Hill equation: […]
(§5) The Hill Slope was set to −1.
(§6) Curves were fitted using a non-linear least square fit with the Levenberg-Marquardt algorithm.

CDK8 = target: T2, CDK8 (Homo sapiens, UniProt P49336); experiment: Kinase competition binding assay (Kd, qPCR readout), CDK8; settings: in vitro binding; 11-point 3-fold dilution series; read-out: pKd (CDK8) (converted)
T2 construct: made in house; host or cells: E. coli BL21-derived host (T7 phage display) or HEK-293 cells
T2 sequence (P49336 whole entry): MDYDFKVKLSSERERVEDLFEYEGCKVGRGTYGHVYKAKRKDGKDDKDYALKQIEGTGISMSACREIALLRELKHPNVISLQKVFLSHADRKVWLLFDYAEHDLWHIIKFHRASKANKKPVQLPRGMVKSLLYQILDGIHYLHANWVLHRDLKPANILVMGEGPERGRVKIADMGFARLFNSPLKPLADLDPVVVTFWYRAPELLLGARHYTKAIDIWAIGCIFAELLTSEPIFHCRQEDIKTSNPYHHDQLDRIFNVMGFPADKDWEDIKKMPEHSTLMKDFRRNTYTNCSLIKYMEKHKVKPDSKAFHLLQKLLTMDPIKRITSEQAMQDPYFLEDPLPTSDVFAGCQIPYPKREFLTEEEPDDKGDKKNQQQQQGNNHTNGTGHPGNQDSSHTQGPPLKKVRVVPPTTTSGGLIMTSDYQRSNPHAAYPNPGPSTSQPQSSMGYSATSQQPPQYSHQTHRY
Protocol: as §1, §2, §3, §4, §5, §6

T1 sequence (Q9BWU1 whole entry): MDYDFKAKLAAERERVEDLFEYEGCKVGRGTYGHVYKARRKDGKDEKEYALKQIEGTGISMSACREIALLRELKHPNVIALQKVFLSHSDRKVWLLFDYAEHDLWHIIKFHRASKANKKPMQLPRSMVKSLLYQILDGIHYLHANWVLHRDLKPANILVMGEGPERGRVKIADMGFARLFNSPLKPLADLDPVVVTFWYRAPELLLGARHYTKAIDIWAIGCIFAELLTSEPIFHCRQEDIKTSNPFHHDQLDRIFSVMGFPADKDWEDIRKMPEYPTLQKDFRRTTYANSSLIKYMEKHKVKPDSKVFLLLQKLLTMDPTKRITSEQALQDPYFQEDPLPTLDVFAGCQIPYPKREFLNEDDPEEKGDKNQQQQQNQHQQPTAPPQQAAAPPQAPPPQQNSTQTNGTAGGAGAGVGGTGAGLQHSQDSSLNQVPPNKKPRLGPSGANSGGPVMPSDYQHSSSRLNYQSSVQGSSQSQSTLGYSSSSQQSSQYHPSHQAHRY

Row | Structure (SMILES) | Kd (CDK19) | Kd (CDK8)
1 | CN(C)C(=O)Cn1cnc(C(=O)NC2CCN(c3snc4ccccc34)CC2)c1 [Compound 7, N-(1-(benzo[c]isothiazol-3-yl)piperidin-4-yl)-1-(2-(dimethylamino)-2-oxoethyl)-1H-imidazole-4-carboxamide] | 200 nM | 631 nM
2 | CNC1CCN(c2snc3ccccc23)CC1 [Compound 1, 1-(benzo[c]isothiazol-3-yl)-N-methylpiperidin-4-amine] | 31600 nM | 31600 nM
3 | O=C(NC1CCN(c2snc3ccccc23)CC1)c1cn(Cc2cnccn2)cn1 [Compound 5, N-(1-(benzo[c]isothiazol-3-yl)piperidin-4-yl)-1-(pyrazin-2-ylmethyl)-1H-imidazole-4-carboxamide] | 79.4 nM | 200 nM
4 | Cn1cnc(C(=O)NC2CCN(c3snc4ccc(F)cc34)CC2)c1 [Compound 4, N-(1-(5-fluorobenzo[c]isothiazol-3-yl)piperidin-4-yl)-1-methyl-1H-imidazole-4-carboxamide] | 50.1 nM | 63.1 nM
5 | CN(C)CCn1cnc(C(=O)NC2CCN(c3snc4ccccc34)CC2)c1 [Compound 9, N-(1-(benzo[c]isothiazol-3-yl)piperidin-4-yl)-1-(2-(dimethylamino)ethyl)-1H-imidazole-4-carboxamide] | 1260 nM | 3980 nM
6 | CN(C)C(=O)Cn1cnc(C(=O)NC2CCN(c3snc4ccc(F)cc34)CC2)c1 [Compound 8, 1-(2-(dimethylamino)-2-oxoethyl)-N-(1-(5-fluorobenzo[c]isothiazol-3-yl)piperidin-4-yl)-1H-imidazole-4-carboxamide] | 316 nM | 501 nM
7 | O=C(NC1CCN(c2snc3ccccc23)CC1)c1cn(Cc2ncccn2)cn1 [Compound 11, N-(1-(benzo[c]isothiazol-3-yl)piperidin-4-yl)-1-(pyrimidin-2-ylmethyl)-1H-imidazole-4-carboxamide] | 100 nM | 501 nM
8 | Cn1cnc(C(=O)NC2CCN(c3snc4ccccc34)CC2)c1 [Compound 3, N-(1-(benzo[c]isothiazol-3-yl)piperidin-4-yl)-1-methyl-1H-imidazole-4-carboxamide] | 158 nM | 398 nM
9 | O=C(NC1CCN(c2snc3ccc(F)cc23)CC1)c1cn(Cc2cnccn2)cn1 [Compound 6, N-(1-(5-fluorobenzo[c]isothiazol-3-yl)piperidin-4-yl)-1-(pyrazin-2-ylmethyl)-1H-imidazole-4-carboxamide] | 20 nM | 25.1 nM
10 | O=C(NC1CCN(c2snc3ccccc23)CC1)c1cn(CC2COC2)cn1 [Compound 10, N-(1-(benzo[c]isothiazol-3-yl)piperidin-4-yl)-1-(oxetan-3-ylmethyl)-1H-imidazole-4-carboxamide] | 100 nM | 316 nM
11 | CC(=O)NC1CCN(c2snc3ccccc23)CC1 [Compound 2, N-(1-(benzo[c]isothiazol-3-yl)piperidin-4-yl)acetamide] | 6310 nM | 10000 nM
